In patent US12673975B2, “Cyclic peptide, cell scaffold material, cell separating material, and medium” (FUJIFILM Corporation, priority 2019, dated 2026):
pKd: −log10 of the molar value. Where two headings read alike, the source gives them in different places. Starred links: 1 amine or outer side, 2 acyl side, 3 side chain; linkers in the order of their positions; H or OH if unused. Positions of bridges follow the written chain, without caps; N, C: chain ends. Non-standard residues stand in square brackets, D forms with d. Residues, ends and D or L forms follow the SMILES beside them. Pen = CC(C)(S)[C@H](N)C(=O)O; hCys = N[C@@H](CCS)C(=O)O; Orn = NCCC[C@H](N)C(=O)O; Dab = NCC[C@H](N)C(=O)O; X2 = O=C(C[*:1])[*:2]

Columns and labels:
human integrin αvβ5 = human integrin αvβ5 (Homo sapiens, UniProt P06756+P18084); assay: Evaluation of integrin binding property (surface plasmon resonance, Biacore 3000, immobilized cyclic peptide)
human integrin αvβ5, sequence (P06756 31-1048): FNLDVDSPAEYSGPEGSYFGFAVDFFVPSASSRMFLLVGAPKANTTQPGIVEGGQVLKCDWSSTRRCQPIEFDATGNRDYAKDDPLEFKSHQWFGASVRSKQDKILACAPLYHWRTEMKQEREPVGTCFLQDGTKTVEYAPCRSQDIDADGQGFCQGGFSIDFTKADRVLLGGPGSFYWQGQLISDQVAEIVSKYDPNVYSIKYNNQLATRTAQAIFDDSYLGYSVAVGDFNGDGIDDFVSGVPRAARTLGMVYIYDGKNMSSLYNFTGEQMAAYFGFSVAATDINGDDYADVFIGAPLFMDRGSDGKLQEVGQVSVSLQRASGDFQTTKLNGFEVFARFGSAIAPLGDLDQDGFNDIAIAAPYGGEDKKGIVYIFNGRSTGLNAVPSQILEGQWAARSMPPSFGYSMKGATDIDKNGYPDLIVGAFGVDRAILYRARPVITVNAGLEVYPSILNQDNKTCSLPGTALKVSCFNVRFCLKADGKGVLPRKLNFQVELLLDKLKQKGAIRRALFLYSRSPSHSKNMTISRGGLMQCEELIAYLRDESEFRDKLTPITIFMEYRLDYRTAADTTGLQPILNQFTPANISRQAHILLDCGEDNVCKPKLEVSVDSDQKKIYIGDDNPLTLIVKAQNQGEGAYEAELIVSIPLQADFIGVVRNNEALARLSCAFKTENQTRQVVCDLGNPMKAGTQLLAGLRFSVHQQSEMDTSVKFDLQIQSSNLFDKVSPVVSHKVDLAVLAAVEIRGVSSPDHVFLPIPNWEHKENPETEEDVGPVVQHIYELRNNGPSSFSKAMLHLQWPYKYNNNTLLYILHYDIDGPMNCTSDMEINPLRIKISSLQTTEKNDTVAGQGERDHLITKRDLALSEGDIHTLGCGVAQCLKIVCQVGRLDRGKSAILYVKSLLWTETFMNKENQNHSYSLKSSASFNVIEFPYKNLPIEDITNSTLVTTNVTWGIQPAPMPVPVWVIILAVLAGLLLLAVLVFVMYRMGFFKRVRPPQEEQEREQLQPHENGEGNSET
human integrin αvβ5, sequence (P18084 24-799): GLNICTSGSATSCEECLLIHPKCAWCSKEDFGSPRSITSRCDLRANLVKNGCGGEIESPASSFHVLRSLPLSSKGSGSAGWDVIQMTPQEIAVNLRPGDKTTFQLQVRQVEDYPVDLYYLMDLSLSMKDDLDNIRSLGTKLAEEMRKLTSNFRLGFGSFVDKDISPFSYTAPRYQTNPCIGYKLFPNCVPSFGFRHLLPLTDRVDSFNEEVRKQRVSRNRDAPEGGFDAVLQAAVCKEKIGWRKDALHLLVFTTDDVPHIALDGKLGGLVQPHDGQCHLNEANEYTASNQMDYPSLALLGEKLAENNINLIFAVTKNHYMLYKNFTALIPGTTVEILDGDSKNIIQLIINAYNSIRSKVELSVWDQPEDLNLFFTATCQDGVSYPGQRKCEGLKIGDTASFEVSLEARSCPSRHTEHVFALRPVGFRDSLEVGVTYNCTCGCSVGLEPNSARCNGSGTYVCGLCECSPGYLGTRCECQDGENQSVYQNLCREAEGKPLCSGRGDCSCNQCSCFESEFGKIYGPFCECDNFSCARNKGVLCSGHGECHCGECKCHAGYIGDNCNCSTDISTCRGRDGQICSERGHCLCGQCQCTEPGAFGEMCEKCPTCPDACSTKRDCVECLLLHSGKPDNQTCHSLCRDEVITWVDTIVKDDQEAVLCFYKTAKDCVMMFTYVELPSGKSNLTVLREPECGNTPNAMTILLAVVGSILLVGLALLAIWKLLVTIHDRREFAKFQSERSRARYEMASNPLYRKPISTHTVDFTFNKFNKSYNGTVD
Summary of the method: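 SPR with cyclic peptide amine-coupled via EDC/NHS to a CM5 chip, blank channel as reference. Integrin αvβ5 at 30, 100, 300 and 1,000 nM injected 10 min at 25 °C in HEPES buffer pH 7.4 with 5 mM MgCl2, 30 min buffer flow, EDTA regeneration; Kd from reference-subtracted signals, graded by category.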

[1] = Evaluation of molecule stability (alkali treatment, residual rate by LC/MS); type: physicochemical; conditions: for Stability (molecule stability, residual rate of the cyclic peptide rank): alkali treatment, residual rate by LC/MS; for Performance evaluation: Stability (residual rate of cyclic peptide after alkali treatment): 500 μM peptide aqueous solution plus equivalent of 1 M sodium hydroxide, 15° C., 3 hours, LC/MS peak area
Summary of the method: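 500 μM aqueous cyclic peptide mixed with an equal volume of 1 M NaOH and held 3 h at 15 °C. Residual rate is total LC/MS peak area after treatment relative to untreated (100%), using a C18 column, pH 3 ammonium formate/acetonitrile gradient, 45 °C, ESI±.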

[2] = surface plasmon resonance, immobilized cyclic peptide, human integrin αvβ5, read-out: Binding activity (integrin binding property, dissociation constant rank)
[3] = SPR, 25° C., HEPES buffer with 5 mM magnesium chloride, integrin 30-1,000 nM, read-out: Performance evaluation: Binding activity (dissociation constant between the cyclic peptide and human integrin αvβ5)

| Structure (SMILES) | pKd (human integrin αvβ5; [2]) | Stability (molecule stability, residual rate of the cyclic peptide rank) [1] | pKd (human integrin αvβ5; [3]) | Performance evaluation: Stability (residual rate of cyclic peptide after alkali treatment) [1] |
| --- | --- | --- | --- | --- |
| CC(C)[C@@H]1NC(=O)[C@@H](NC(=O)[C@H](C)NC(=O)[C@H](CCCCN)NC(=O)[C@H](CCCCN)NC(=O)[C@@H](N)CCCCN)CCSCC(=O)NCC[C@@H](C(=O)O)NC(=O)[C@H](C)NC(=O)[C@H](Cc2ccccc2)NC(=O)[C@H]([C@@H](C)O)NC(=O)[C@H](CC(=O)O)NC(=O)CNC(=O)[C@H](CCCNC(=N)N)NC(=O)[C@@H]2CCCN2C1=O [Cyclic peptide 164, KKKA-(Hcy)-VPRGDTFA(Dab(acetyl))] (H-KKKA[hCys]VPRGDTFA[Dab]-OH; linker 5-14 via X2) | > 7.30 | A (The residual rate of the cyclic peptide is 70% or more.) |  |  |
| CC(C)[C@@H]1NC(=O)[C@@H](NC(=O)[C@H](CCCCN)NC(=O)[C@H](CCCCN)NC(=O)[C@@H](N)CCCCN)CCSCC(=O)NCC[C@@H](C(=O)O)NC(=O)[C@H](C)NC(=O)[C@H](Cc2ccccc2)NC(=O)[C@H]([C@@H](C)O)NC(=O)[C@H](CC(=O)O)NC(=O)CNC(=O)[C@H](CCCNC(=N)N)NC(=O)[C@H]([C@@H](C)O)NC1=O [Cyclic peptide 150, KKK-(Hcy)-VTRGDTFA(Dab(acetyl))] (H-KKK[hCys]VTRGDTFA[Dab]-OH; linker 4-13 via X2) | > 7.30 | A (The residual rate of the cyclic peptide is 70% or more.) |  |  |
| CC[C@H](C)[C@@H]1NC(=O)[C@@H](NC(=O)CNC(=O)[C@H](CCCCN)NC(=O)[C@H](CCCCN)NC(=O)[C@@H](N)CCCCN)CCSCC(=O)NCC[C@@H](C(=O)N[C@@H](C)C(=O)O)NC(=O)[C@H](Cc2ccccc2)NC(=O)[C@H]([C@@H](C)O)NC(=O)[C@H](CC(=O)O)NC(=O)CNC(=O)[C@H](CCCNC(=N)N)NC(=O)[C@@H]2CCCN2C1=O [Cyclic peptide 58, KKKG-(Hcy)-IPRGDTF(Dab(acetyl))A] (H-KKKG[hCys]IPRGDTF[Dab]A-OH; linker 5-13 via X2) |  |  | > 7.30 | A (The residual rate of the cyclic peptide is 70% or more.) |
| CC(C)[C@@H]1NC(=O)[C@@H](NC(=O)[C@H](C)NC(=O)[C@H](CCCCN)NC(=O)[C@H](CCCCN)NC(=O)[C@@H](N)CCCCN)CCSCC(=O)NCC[C@@H](C(=O)N[C@@H](C)C(=O)O)NC(=O)[C@H](C)NC(=O)[C@H](Cc2ccccc2)NC(=O)[C@H](CO)NC(=O)[C@H](CC(=O)O)NC(=O)CNC(=O)[C@H](CCCNC(=N)N)NC(=O)[C@@H]2CCCN2C1=O [Cyclic peptide 96, KKKA-(Hcy)-VPRGDSFA(Dab(acetyl))A] (H-KKKA[hCys]VPRGDSFA[Dab]A-OH; linker 5-14 via X2) |  |  | > 7.30 | A (The residual rate of the cyclic peptide is 70% or more.) |
| CC[C@H](C)[C@@H]1NC(=O)[C@@H](NC(=O)[C@H](CCCCN)NC(=O)[C@H](CCCCN)NC(=O)[C@@H](N)CCCCN)CCSCC(=O)NCC[C@@H](C(=O)O)NC(=O)[C@H](Cc2ccccc2)NC(=O)[C@H](CC(N)=O)NC(=O)[C@H](CC(=O)O)NC(=O)CNC(=O)[C@H](CCCNC(=N)N)NC(=O)[C@@H]2CCCN2C1=O [Cyclic peptide 13, KKK-(Hcy)-IPRGDNF(Dab(acetyl))] (H-KKK[hCys]IPRGDNF[Dab]-OH; linker 4-12 via X2) |  |  | > 7.30 | A (The residual rate of the cyclic peptide is 70% or more.) |
| CC[C@H](C)[C@@H]1NC(=O)[C@@H](NC(=O)CNC(=O)[C@H](CCCCN)NC(=O)[C@H](CCCCN)NC(=O)[C@@H](N)CCCCN)CCSCC(=O)NCC[C@@H](C(=O)N[C@@H](C)C(=O)O)NC(=O)[C@H](CCCNC(=N)N)NC(=O)[C@H](Cc2ccccc2)NC(=O)[C@H]([C@@H](C)O)NC(=O)[C@H](CC(=O)O)NC(=O)CNC(=O)[C@H](CCCNC(=N)N)NC(=O)[C@@H]2CCCN2C1=O [Cyclic peptide 54, KKKG-(Hcy)-IPRGDTFR(Dab(acetyl))A] (H-KKKG[hCys]IPRGDTFR[Dab]A-OH; linker 5-14 via X2) |  |  | > 7.30 | A (The residual rate of the cyclic peptide is 70% or more.) |
| CC(C)[C@@H]1NC(=O)[C@@H](NC(=O)[C@H](CCCCN)NC(=O)[C@H](CCCCN)NC(=O)[C@@H](N)CCCCN)CCSCC(=O)NCC[C@@H](C(=O)O)NC(=O)[C@H](C)NC(=O)[C@H](Cc2ccccc2)NC(=O)[C@H]([C@@H](C)O)NC(=O)[C@H](CC(=O)O)NC(=O)CNC(=O)[C@H](CCCNC(=N)N)NC(=O)[C@H](CO)NC1=O [Cyclic peptide 149, KKK-(Hcy)-VSRGDTFA(Dab(acetyl))] (H-KKK[hCys]VSRGDTFA[Dab]-OH; linker 4-13 via X2) | > 7.30 | A (The residual rate of the cyclic peptide is 70% or more.) |  |  |
| CC[C@H](C)[C@@H]1NC(=O)[C@@H](NC(=O)[C@H](CCCCN)NC(=O)[C@H](CCCCN)NC(=O)[C@@H](N)CCCCN)CCSCC(=O)NCC[C@@H](C(=O)N[C@@H](CC(=O)O)C(=O)O)NC(=O)[C@H](CCCNC(=N)N)NC(=O)[C@H](Cc2ccccc2)NC(=O)[C@H](CC(N)=O)NC(=O)[C@H](CC(=O)O)NC(=O)CNC(=O)[C@H](CCCNC(=N)N)NC(=O)[C@@H]2CCCN2C1=O [Cyclic peptide 5, KKK-(Hcy)-IPRGDNFR(Dab(acetyl))D] (H-KKK[hCys]IPRGDNFR[Dab]D-OH; linker 4-13 via X2) |  |  | > 7.30 | A (The residual rate of the cyclic peptide is 70% or more.) |
| CC[C@H](C)[C@@H]1NC(=O)[C@@H](NC(=O)[C@H](CCCCN)NC(=O)[C@H](CCCCN)NC(=O)[C@@H](N)CCCCN)CCSCC(=O)NCC[C@@H](C(=O)N[C@@H](C)C(=O)O)NC(=O)[C@H](CCCNC(=N)N)NC(=O)[C@H](Cc2ccc(O)cc2)NC(=O)[C@H](CC(N)=O)NC(=O)[C@H](CC(=O)O)NC(=O)CNC(=O)[C@H](CCCNC(=N)N)NC(=O)[C@@H]2CCCN2C1=O [Cyclic peptide 26, KKK-(Hcy)-IPRGDNYR(Dab(acetyl))A] (H-KKK[hCys]IPRGDNYR[Dab]A-OH; linker 4-13 via X2) |  |  | 7.00 to 7.30 | A (The residual rate of the cyclic peptide is 70% or more.) |
| CC[C@H](C)[C@@H]1NC(=O)[C@@H](NC(=O)[C@H](C)NC(=O)[C@H](CCCCN)NC(=O)[C@H](CCCCN)NC(=O)[C@@H](N)CCCCN)CCSCC(=O)NCC[C@@H](C(=O)N[C@@H](C)C(=O)O)NC(=O)[C@H](CCCNC(=N)N)NC(=O)[C@H](Cc2ccccc2)NC(=O)[C@H]([C@@H](C)O)NC(=O)[C@H](CC(=O)O)NC(=O)CNC(=O)[C@H](CCCNC(=N)N)NC(=O)[C@@H]2CCCN2C1=O [Cyclic peptide 56, KKKA-(Hcy)-IPRGDTFR(Dab(acetyl))A] (H-KKKA[hCys]IPRGDTFR[Dab]A-OH; linker 5-14 via X2) |  |  | > 7.30 | A (The residual rate of the cyclic peptide is 70% or more.) |
| C[C@H](NC(=O)[C@@H]1CCNC(=O)CSCC[C@H](NC(=O)[C@H](C)NC(=O)[C@H](CCCCN)NC(=O)[C@H](CCCCN)NC(=O)[C@@H](N)CCCCN)C(=O)N[C@@H]([C@@H](C)O)C(=O)N2CCC[C@H]2C(=O)N[C@@H](CCCNC(=N)N)C(=O)NCC(=O)N[C@@H](CC(=O)O)C(=O)N[C@@H]([C@@H](C)O)C(=O)N[C@@H](Cc2ccccc2)C(=O)N[C@@H](C)C(=O)N1)C(=O)O [Cyclic peptide 160, KKKA-(Hcy)-TPRGDTFA(Dab(acetyl))A] (H-KKKA[hCys]TPRGDTFA[Dab]A-OH; linker 5-14 via X2) | > 7.30 | A (The residual rate of the cyclic peptide is 70% or more.) |  |  |
| CC[C@H](C)[C@@H]1NC(=O)[C@@H](NC(=O)CNC(=O)[C@H](CCCCN)NC(=O)[C@H](CCCCN)NC(=O)[C@@H](N)CCCCN)C(C)(C)SCC(=O)NCCC[C@@H](C(=O)N[C@@H](C)C(=O)O)NC(=O)[C@H](CCCNC(=N)N)NC(=O)[C@H](Cc2ccccc2)NC(=O)[C@H]([C@@H](C)O)NC(=O)[C@H](CC(=O)O)NC(=O)CNC(=O)[C@H](CCCNC(=N)N)NC(=O)[C@@H]2CCCN2C1=O [Cyclic peptide 130, KKKG-(Pen)-IPRGDTFR(Orn(acetyl))A] (H-KKKG[Pen]IPRGDTFR[Orn]A-OH; linker 5-14 via X2) | > 7.30 | A (The residual rate of the cyclic peptide is 70% or more.) |  |  |
| CC(C)[C@@H]1NC(=O)[C@@H](NC(=O)[C@H](C)NC(=O)[C@H](CCCCN)NC(=O)[C@H](CCCCN)NC(=O)[C@@H](N)CCCCN)CCSCC(=O)NCC[C@@H](C(=O)N[C@@H](C)C(=O)O)NC(=O)[C@H](CCCNC(=N)N)NC(=O)[C@H](Cc2ccccc2)NC(=O)[C@H]([C@@H](C)O)NC(=O)[C@H](CC(=O)O)NC(=O)CNC(=O)[C@H](CCCNC(=N)N)NC(=O)[C@H]([C@@H](C)O)NC1=O [Cyclic peptide 89, KKKA-(Hcy)-VTRGDTFR(Dab(acetyl))A] (H-KKKA[hCys]VTRGDTFR[Dab]A-OH; linker 5-14 via X2) |  |  | > 7.30 | A (The residual rate of the cyclic peptide is 70% or more.) |
| CC(C)[C@@H]1NC(=O)[C@@H](NC(=O)[C@H](CCCCN)NC(=O)[C@H](CCCCN)NC(=O)[C@@H](N)CCCCN)CCSCC(=O)NCC[C@@H](C(=O)O)NC(=O)[C@H](C)NC(=O)[C@H](Cc2ccccc2)NC(=O)[C@H](CO)NC(=O)[C@H](CC(=O)O)NC(=O)CNC(=O)[C@H](CCCNC(=N)N)NC(=O)[C@@H]2CCCN2C1=O [Cyclic peptide 102, KKK-(Hcy)-VPRGDSFA(Dab(acetyl))] (H-KKK[hCys]VPRGDSFA[Dab]-OH; linker 4-13 via X2) | > 7.30 | A (The residual rate of the cyclic peptide is 70% or more.) |  |  |
